Where a name gives a salt, the structure may show the parent alone.
What was measured:
μ receptor = target: T1, μ receptor (Mus musculus, UniProt P42866); assay: Ke with naloxone in isolated mouse vas deference preparation; format: cell-based, mouse (male ddy)
T1 construct: The isolated vas deference was filled with Krebes-Henseleit solution; from tissue; host or cells: isolated vas deferens of male ddy mouse
Description: (§1) A male ddy mouse was used in this test. The isolated vas deference was filled with Krebes-Henseleit solution (NaCl 118 mM; KCl 4.7 mM; CaCl2 2.5 mM; KH2 PO4 1.1 mM; NaHCO3 25 mM; and glucose 10 mM) warmed to 37° C. and suspended in a Magnus tube ventilated with 5% carbon dioxide and 95% oxygen. Electrical stimulus was performed at 0.1 Hz for 5.0 ms by means of ring-shaped platinum electrodes located above and below. Tissue contractions were recorded on a polygraph using an isometric transducer.
(§2) Then after adequately washing with nutrient solution and the contraction reaction stabilized, naloxone, a μ agonist, NTI, a δ agonist, or norBNI, a κ […], were added and the test compound was again cumulatively added after roughly 20 minutes. The Ke value was calculated using the following calculation formula from the difference in the efficacies of both agonists.
(§3) Ke=[Conc. of added agonist]/(IC50 ratio-1)
(§4) IC50 ratio IC50 in the presence of agonist/IC50 in the absence of agonist

δ receptor = target: T2, δ receptor (Mus musculus, UniProt P32300); assay: Ke with NTI in isolated mouse vas deference preparation; format: cell-based, mouse (male ddy); conditions: for Ke NTI: NTI (δ)
T2 construct: The isolated vas deference was filled with Krebes-Henseleit solution; from tissue; host or cells: isolated vas deferens of male ddy mouse
Description: as §1, §2, §3, §4

κ receptor [1] = target: T3, κ receptor (Mus musculus, UniProt P33534); assay: Ke with norBNI in isolated mouse vas deference preparation; format: cell-based, mouse (male ddy); conditions: for Ke norBNI: norBNI (κ)
T3 construct: The isolated vas deference was filled with Krebes-Henseleit solution; from tissue; host or cells: isolated vas deferens of male ddy mouse
Description: as §1, §2, §3, §4

ddY mice = assay: animal or person; format: in vivo, mouse (ddY); conditions: mouse, s.c. 15 min before i.p. 0.6% acetic acid
Description: Analgesic Activity Test Using the Acetic Acid-induced Writhing Method
5 week old ddY mice were used in this test. After intraperitoneal administration of 0.1 ml of 0.6% aqueous acetic acid per 10 g of body weight, the number of writhing reactions that occurred in 10 minutes starting 10 minutes after administration was evaluated for the indicator. The test drug was administered subcutaneously into the backs of the animals 15 minutes before administration of acetic acid.

Wistar rats = assay: Evaluation of diuretic action; format: in vivo, rat (male Wistar); conditions: sc, rat, s.c., urine output for 5 h after 20 ml/kg saline oral; for ED200: read-out: ED200, diuretic action (dose giving urine output of 200, non-dosed group = 100)
Description: Evaluation of Diuretic Action
7-8 week old male Wistar rats were used in this test after prohibiting from drinking water for 1 hour before testing. After discharging any urine accumulated in the bladder by gently stimulating the lower abdomens of the animals, the drug was administered subcutaneously. After 30 minutes, the animals were then forcibly given 20 ml/kg of physiological saline orally. The animals were then placed in metabolic cages immediately after administration of the drug (2 animals/cage) and urine output for 5 hours after loading with physiological saline was measured. Drug efficacy was expressed in the form of those doses resulting in urine outputs of 200 and 500, respectively, when the urine output of a non-dosed group was taken to be 100. Those doses were expressed as the ED200 and ED500 values, respectively.

[2] = test system: isolated mouse vas deference; assay: Opioid activity test using the isolated mouse vas deference preparation (electrically stimulated contractions); format: cell-based, mouse (male ddy); conditions: suppression of electrically stimulated contractions
Description: Opioid Activity Test Using the Isolated Mouse Vas Deference Preparation
as §1, §2

κ receptor [3] = target: T4, κ receptor (Cavia porcellus, UniProt P41144); assay: Ke with norBNI in isolated guinea pig preparation; format: cell-based, guinea pig (male Hartley); conditions: guinea pig ileum
T4 construct: from tissue; host or cells: longitudinal muscle of the ileum of male Hartley guinea pig
Description: A male Hartley guinea pig was used in this test.
After sacrificing the guinea pig and extracting the ileum, the lumen was washed with nutrient solution and only the longitudinal muscle was isolated. This longitudinal muscle was filled with Krebes-Henseleit solution (NaCl 118 mM; KCl 4.7 mM; CaCl2 2.5 mM; KH2 PO4 1.2 mM; NaHCO3 25 mM; MgSO4 1.2 mM and glucose 10 mM) warmed to 37° C. and suspended in a Magnus tube ventilated with 5% carbon dioxide and 95% oxygen. Electrical stimulus was performed at 0.1 Hz for 5.0 ms by means of ring-shaped platinum electrodes located above and below. Tissue contractions were recorded on a polygraph using an isometric transducer.
as §2, with “antagonist,” for “agonist, NTI, a δ agonist,”
Ke=[Conc. of added antagonist]/(IC50 ratio-1)
IC50 ratio=IC50 in the presence of antagonist/IC50 in the absence of antagonist

T2 sequence (P32300 whole entry): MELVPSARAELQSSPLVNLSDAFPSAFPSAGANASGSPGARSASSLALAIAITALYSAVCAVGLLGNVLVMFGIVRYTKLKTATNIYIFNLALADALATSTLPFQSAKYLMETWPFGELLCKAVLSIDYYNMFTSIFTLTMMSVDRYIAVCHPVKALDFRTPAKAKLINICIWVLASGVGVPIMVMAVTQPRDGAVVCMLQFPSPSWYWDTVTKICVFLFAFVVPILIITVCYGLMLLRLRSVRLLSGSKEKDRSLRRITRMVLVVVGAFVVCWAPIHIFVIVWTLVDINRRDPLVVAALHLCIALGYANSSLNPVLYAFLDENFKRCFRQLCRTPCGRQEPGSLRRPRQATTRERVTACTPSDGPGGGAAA
T1 sequence (P42866 whole entry): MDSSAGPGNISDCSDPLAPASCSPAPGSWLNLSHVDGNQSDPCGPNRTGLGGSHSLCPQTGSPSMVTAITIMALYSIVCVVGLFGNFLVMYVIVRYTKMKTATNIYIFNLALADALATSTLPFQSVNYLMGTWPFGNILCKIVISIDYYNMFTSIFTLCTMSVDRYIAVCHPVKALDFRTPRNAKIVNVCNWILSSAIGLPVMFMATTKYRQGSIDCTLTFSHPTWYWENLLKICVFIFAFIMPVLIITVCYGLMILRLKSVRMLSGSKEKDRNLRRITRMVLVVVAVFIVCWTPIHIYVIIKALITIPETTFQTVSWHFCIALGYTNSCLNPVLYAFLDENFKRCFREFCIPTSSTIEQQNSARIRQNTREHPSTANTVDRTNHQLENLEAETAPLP
T3 sequence (P33534 whole entry): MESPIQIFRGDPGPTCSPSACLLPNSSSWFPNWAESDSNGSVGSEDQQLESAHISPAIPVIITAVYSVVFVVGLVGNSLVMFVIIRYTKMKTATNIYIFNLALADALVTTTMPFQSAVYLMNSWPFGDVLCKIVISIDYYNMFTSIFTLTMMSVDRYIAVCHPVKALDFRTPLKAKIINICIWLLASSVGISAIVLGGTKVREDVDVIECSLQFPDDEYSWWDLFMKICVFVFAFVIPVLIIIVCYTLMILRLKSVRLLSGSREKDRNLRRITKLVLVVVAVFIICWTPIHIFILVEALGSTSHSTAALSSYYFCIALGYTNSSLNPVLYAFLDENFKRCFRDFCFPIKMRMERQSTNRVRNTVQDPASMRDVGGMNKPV
T4 sequence (P41144 whole entry): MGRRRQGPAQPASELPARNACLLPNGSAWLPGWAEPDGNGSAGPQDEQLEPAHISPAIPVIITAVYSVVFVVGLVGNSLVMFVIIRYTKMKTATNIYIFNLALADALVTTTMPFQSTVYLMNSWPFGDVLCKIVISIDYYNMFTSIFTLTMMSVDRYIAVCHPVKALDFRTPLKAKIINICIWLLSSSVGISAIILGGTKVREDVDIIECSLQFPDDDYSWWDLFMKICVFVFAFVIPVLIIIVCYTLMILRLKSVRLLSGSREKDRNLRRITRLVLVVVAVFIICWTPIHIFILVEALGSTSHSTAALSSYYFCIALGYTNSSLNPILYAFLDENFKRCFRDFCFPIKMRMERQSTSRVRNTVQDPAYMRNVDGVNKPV

| SMILES | Ke Naloxone (μ receptor) [nM] | selective agonist for δ receptors (in words) (δ receptor) | Ke NTI (δ receptor) [nM] | Ke norBNI (κ receptor [1]) [nM] | ED50, acetic acid writhing (ddY mice) [µg/kg] | ED200 (Wistar rats) [µg/kg] | selective agonist for κ receptors (in words) (κ receptor [1]) | ED500 (Wistar rats; read-out: ED500, diuretic action (dose giving urine output of 500, non-dosed group = 100)) [µg/kg] | IC50 [2] [nM] | ED50 (ddY mice; sc, read-out: ED50, acetic acid writhing) [µg/kg] | Ke norBNI (κ receptor [3]) [nM] |
| --- | --- | --- | --- | --- | --- | --- | --- | --- | --- | --- | --- |
| CN(C(=O)/C=C/c1cccc(F)c1)[C@H]1CC[C@@]2(O)[C@H]3Cc4ccc(O)c5c4[C@@]2(CCN3CC2CC2)[C@H]1O5 [Compound 96, 17-cyclopropylmethyl-3,14β-dihydroxy-4,5α-epoxy-6α-(N-methyl-3-fluorocinnamamido)morphinan.tartrate] | 32.5 | selective agonists for δ receptors | 1.61 | 4.21 | 0.86 | 1.3 |  |  |  |  |  |
| CN(C(=O)CC(=O)c1ccccc1)[C@H]1CC[C@@]2(O)[C@H]3Cc4ccc(O)c5c4[C@@]2(CCN3CC2CC2)[C@H]1O5 [Compound 98, 17-cyclopropylmethyl-3,14β-dihydroxy-4,5α-epoxy-6α-(N-methylbenzoylacetamido)morphinan.tartrate] |  |  |  | 1.35 | 6.8 | 6.5 | selective agonists for κ receptors |  |  |  |  |
| CC(=O)Oc1ccc2c3c1O[C@H]1[C@H](N(C)C(=O)/C=C/c4ccccc4)CC[C@@]4(O)[C@@H](C2)N(CC2CC2)CC[C@]314 [Compound 140, 17-Cyclopropylmethyl-3-acetoxy-14β-hydroxy-4,5α-epoxy-6β-(N-methylcinnamamido)morphinan.tartrate] | 320 |  | 261 | 1.06 | 3.4 |  | selective agonists for κ receptors |  |  |  |  |
| CN(C(=O)OCc1ccccc1)[C@H]1CC[C@@]2(O)[C@H]3Cc4ccc(O)c5c4[C@@]2(CCN3CC2CC2)[C@H]1O5 [Compound 42, 17-cyclopropylmethyl-3,14β-dihydroxy-4,5α-epoxy-6α-(N-methylbenzyloxycarbamido)morphinan.tartrate] | 186 |  | 63.5 | 0.905 | 1.36 | 0.85 | selective agonists for κ receptors | 6.1 |  |  |  |
| COc1cccc(/C=C/C(=O)N(C)[C@@H]2CC[C@@]3(O)[C@H]4Cc5ccc(O)c6c5[C@@]3(CCN4CC3CC3)[C@H]2O6)c1 [Compound 63] | 60.9 |  | 96.9 | 1.60 |  | 3.8 | selective agonists for κ receptors |  | 0.746 | 1.1 |  |
| CN(C(=O)Cc1ccc(Cl)c(Cl)c1)[C@H]1CC[C@@]2(O)[C@H]3Cc4ccc(O)c5c4[C@@]2(CCN3CC2CC2)[C@H]1O5 [Compound 1, 17-cyclopropylmethyl-4,5α-epoxy-3,14β-dihydroxy-6α-(N-methyl-3,4-dichlorophenylacetamido)morphinan.hydrochloride] | 53 |  | 17.3 | 0.548 |  | 2.7 | selective agonists for κ receptors |  |  |  | 0.16 |
| CN(C(=O)/C=C/c1ccccc1)[C@@H]1CC[C@@]2(O)[C@H]3Cc4ccc(O)c5c4[C@@]2(CCN3CC2CC2)[C@H]1O5 [Compound 99, 17-cyclopropylmethyl-3,14β-dihydroxy-4,5α-epoxy-6β-(N-methylcinnamamido)morphinan.hydrochloride] | 94.5 |  |  | 0.652 | 1.8 | 1.1 | selective agonists for κ receptors |  |  |  |  |
| Cc1cccc(/C=C/C(=O)N(C)[C@@H]2CC[C@@]3(O)[C@H]4Cc5ccc(O)c6c5[C@@]3(CCN4CC3CC3)[C@H]2O6)c1 [Compound 69, 17-cyclopropylmethyl-3,14β-dihydroxy-4,5α-epoxy-6β-(N-methyl-3-methylcinnamamido)morphinan.hydrochloride] | 1780 |  | 64.5 | 1.95 |  |  | selective agonists for κ receptors |  | 0.32 |  |  |
| CCCCOC(=O)N(C)[C@H]1CC[C@@]2(O)[C@H]3Cc4ccc(O)c5c4[C@@]2(CCN3CC2CC2)[C@H]1O5 [Compound 47, 17-cyclopropylmethyl-4,5α-epoxy-3,14β-dihydroxy-6α-(N-methylbutyroxycarbamido)morphinan.tartrate] | 63.5 |  | 10.4 | 0.140 | 0.52 | 1.6 | selective agonists for κ receptors |  |  |  |  |
| CN(C(=O)/C=C/C1CCCCC1)[C@@H]1CC[C@@]2(O)[C@H]3Cc4ccc(O)c5c4[C@@]2(CCN3CC2CC2)[C@H]1O5 [Compound 68, 17-cyclopropylmethyl-3,14,β-dihydroxy-4,5α-epoxy-6β-(N-methyl-3-cyclohexylacrylamido) morphinan.tartrate] | 5710 |  | 143 | 1.08 |  | 1.6 | selective agonists for κ receptors |  | 0.457 |  |  |
| CN(C(=O)CSc1ccccc1)[C@H]1CC[C@@]2(O)[C@H]3Cc4ccc(O)c5c4[C@@]2(CCN3CC2CC2)[C@H]1O5 [Compound 45, 17-cyclopropylmethyl-4,5α-epoxy-3,14,β-dihydroxy-6α-(N-methylthiophenoxyacetamido)morphinan.tartrate] | 26.5 |  | 135 | 0.416 | 3.8 | 8.1 | selective agonists for κ receptors |  |  |  |  |

From patent publication US6277859A, “Morphinan derivative and its pharmaceutical applications” (priority 1992, dated 2001)
